Results: patent publication US11998539B2, “Substituted aminoquinolones as DGKalpha inhibitors for immune activation” (Bayer Aktiengesellschaft, priority 2019, dated 2024)
pIC50: −log10 of the molar value.

Target: DGKα (Homo sapiens (Human), UniProt P23743)
Experiment: Human DGKα kinase activity inhibition assay (ADP-Glo)
Type: biochemical
Details: recombinant full-length human DGKα, 55 μM ATP, 7 μM 1,2-dioleoyl-sn-glycerol, read-out: IC50 values of examples in in vitro human DGKa kinase activity inhibition assays
Summary of the method: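 Recombinant full-length human DGKα (C-terminal FLAG, from insect cells) phosphorylated 1,2-dioleoyl-sn-glycerol presented in octyl-glucopyranoside micelles. ADP formed was quantified by ADP-Glo luminescence. Compounds were added from 100-fold DMSO stocks.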

Sequence of DGKα (P23743 other isoform, or with tags, fused parts or gaps): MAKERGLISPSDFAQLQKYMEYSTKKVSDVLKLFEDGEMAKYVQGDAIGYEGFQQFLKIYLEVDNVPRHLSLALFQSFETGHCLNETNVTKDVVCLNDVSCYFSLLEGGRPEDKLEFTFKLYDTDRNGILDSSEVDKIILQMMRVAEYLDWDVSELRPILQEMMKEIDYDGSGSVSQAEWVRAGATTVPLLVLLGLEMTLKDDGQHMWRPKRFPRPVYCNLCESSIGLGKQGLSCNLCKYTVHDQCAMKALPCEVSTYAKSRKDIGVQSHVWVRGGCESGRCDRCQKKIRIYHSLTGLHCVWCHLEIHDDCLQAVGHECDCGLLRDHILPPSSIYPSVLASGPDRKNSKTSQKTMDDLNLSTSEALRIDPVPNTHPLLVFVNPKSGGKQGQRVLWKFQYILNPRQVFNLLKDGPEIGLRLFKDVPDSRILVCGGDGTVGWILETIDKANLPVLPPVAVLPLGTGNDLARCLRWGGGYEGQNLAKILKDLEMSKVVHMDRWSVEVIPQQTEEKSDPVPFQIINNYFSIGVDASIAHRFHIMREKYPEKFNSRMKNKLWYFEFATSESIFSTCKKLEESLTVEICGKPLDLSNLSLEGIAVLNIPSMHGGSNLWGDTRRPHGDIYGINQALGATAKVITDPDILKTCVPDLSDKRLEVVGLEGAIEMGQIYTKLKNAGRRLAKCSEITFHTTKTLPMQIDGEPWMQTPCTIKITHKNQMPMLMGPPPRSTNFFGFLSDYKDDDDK

Cc1ccc2oc(C3CCN(c4c(C#N)c(=O)n(C)c5cc(OC6CCOC6)ccc45)CC3)nc2c1 (single isomer, unassigned) [Example 381, 1-methyl-4-[4-(5-methyl-1,3-benzoxazol-2-yl)piperidin-1-yl]-2-oxo-7[(oxolan-3-yl)oxy]-1,2-dihydroquinoline-3-carbonitrile]
pIC50: 8.13

COCc1ccc2oc(C3(C)CCN(c4c(C(N)=O)c(=O)n(C)c5ccccc45)CC3)nc2c1 [Example 490, 4-{4-[5-(methoxymethyl)-1,3-benzoxazol-2-yl]-4-methylpiperidin-1-yl}-1-methyl-2-oxo-1,2-dihydroquinoline-3-carboxamide]
pIC50: 8.11

Cc1cc2c(N3CCC(c4cnn(-c5ccccc5C)c4)CC3)c(C#N)c(=O)n(C)c2cc1Br [Example 579, 7-bromo-1,6-dimethyl-4-{4-[1-(2-methylphenyl)-1H-pyrazol-4-yl]piperidin-1-yl}-2-oxo-1,2-dihydroquinoline-3-carbonitrile]
pIC50: 7.21

Cn1c(=O)c(C#N)c(N2CCC(c3ccc(C(F)(F)F)cc3)CC2)c2ccccc21 [Example 61, 1-methyl-2-oxo-4-{4-[4-(trifluoromethyl)phenyl]piperidin-1-yl}-1,2-dihydroquinoline-3-carbonitrile]
pIC50: 7.43

Cc1ccc2oc(C3(C)CCN(c4c(C#N)c(=O)n(C)c5ccc(CC6COC6)cc45)CC3)nc2c1 [Example 286, 1-methyl-4-[4-methyl-4-(5-methyl-1,3-benzoxazol-2-yl)piperidin-1-yl]-6-[(oxetan-3-yl)methyl]-2-oxo-1,2-dihydroquinoline-3-carbonitrile]
pIC50: 6.43

Cc1ccc2c(c1)c(N1CCC(C)(c3nc4cc(C(C)C)ccc4o3)CC1)c(C#N)c(=O)n2C [Example 189, 1,6-dimethyl-4-{4-methyl-4-[5-(propan-2-yl)-1,3-benzoxazol-2-yl]piperidin-1-yl}-2-oxo-1,2-dihydroquinoline-3-carbonitrile]
pIC50: 7.82

COc1ccc(C2CCN(c3c(C#N)c(=O)n(C)c4ccc(Br)cc34)CC2)cc1 [Example 167, 6-bromo-4-[4-(4-methoxyphenyl)piperidin-1-yl]-1-methyl-2-oxo-1,2-dihydroquinoline-3-carbonitrile]
pIC50: 8.49

Cc1ccc2oc(C3(C)CCN(c4c(C#N)c(=O)n(C)c5cc(C(F)(F)F)ccc45)CC3)nc2c1 [Example 290, 1-methyl-4-[4-methyl-4-(5-methyl-1,3-benzoxazol-2-yl)piperidin-1-yl]-2-oxo-7-(trifluoromethyl)-1,2-dihydroquinoline-3-carbonitrile]
pIC50: 8.00

Cc1ccc(-c2csc(C3CCN(c4c(C(N)=O)c(=O)n(C)c5ccccc45)CC3)n2)cc1 [Example 478, 1-methyl-4-{4-[4-(4-methylphenyl)-1,3-thiazol-2-yl]piperidin-1-yl}-2-oxo-1,2-dihydroquinoline-3-carboxamide]
pIC50: 8.03

Cn1c(=O)c(C(N)=O)c(N2CCC(c3nnc(-c4cccc(Cl)c4)o3)CC2)c2ccccc21 [Example 464, 4-{4-[5-(3-chlorophenyl)-1,3,4-oxadiazol-2-yl]piperidin-1-yl}-1-methyl-2-oxo-1,2-dihydroquinoline-3-carboxamide]
pIC50: 6.91

Cn1c(=O)c(C#N)c(N2CCC(c3ccc4c(c3)C3(CCC3)C(=O)N4)CC2)c2ccccc21 [Example 361, 1-methyl-2-oxo-4-[4-(2′-oxo-1′,2′-dihydrospiro[cyclobutane-1,3′-indol]-5′-yl)piperidin-1-yl]-1,2-dihydroquinoline-3-carbonitrile]
pIC50: 7.57

Cn1c(=O)c(C(N)=O)c(N2CCC(C)(c3nc4ccccc4o3)CC2)c2ccccc21 [Example 105, 4-[4-(1,3-benzoxazol-2-yl)-4-methylpiperidin-1-yl]-1-methyl-2-oxo-1,2-dihydroquinoline-3-carboxamide]
pIC50: 8.72

Cn1c(=O)c(C#N)c(N2CCC(c3ccc(OCC(F)(F)F)cc3)CC2)c2ccccc21 [Example 37, 1-methyl-2-oxo-4-{4-[4-(2,2,2-trifluoroethoxy)phenyl]piperidin-1-yl}-1,2-dihydroquinoline-3-carbonitrile]
pIC50: 8.96
